Measured values from patent publication US20020049160A1, “New strategy for drug design” (priority 2000, published 2002).

Columns and labels:
NMDA receptors = target: T1, NMDA receptors (Rattus norvegicus, UniProt P35439); assay: NMDA-evoked currents in isolated dorsal horn neurons of control rats, whole-cell patch clamp, with or without PKCM in the pipette; type: cell-based
T1 construct: Single dorsal horn neurons were isolated from the lamina I and II of the lumbar spinal cord; endogenous in cells; host or cells: acutely dissociated rat lumbar dorsal horn neurons (lamina I/II): control Long-Evans rats or CFA-inflamed Sprague-Dawley rats
Description: Single dorsal horn neurons were isolated from the lamina I and II of the lumbar spinal cord of 13-20 days old Long-Evans rats. After the rat had been anaesthetized with pentobarbitone (0.1 mg/g), the lumbar region of the spinal cord was rapidly removed from the animal and put into an ice-cold, oxygenated dissecting solution. […] Prior to an experiment, neurons from a slice were dissociated by triturating the tissue with a series of fire-polished Pasteur pipettes.
Electrical recordings: NMDA-receptor mediated currents in normal dorsal horn neurons were examined using the whole-cell patch clamp recording technique at room temperature (20-23° C.). The pipette solution contained (in mM): 120 cesium methanesulphonate, 20 CsCl, 1 CaCl2, 5 BAPTA, 1 MgCl2, 10 HEPES, 2.5 Na2ATP, adjusted to pH 7.2 with CsOH. The external solution contained (mM): NaCl,140; KCl, 4; CaCI2, 2.5; MgCl2, 0.02; HEPES,10; Glucose,10; Sucrose,10; adjusted to pH 7.4 with KOH. […] The resistances of patch pipettes were <20 Mohms. Current recordings were made with an Axopatch-200A patch clamp amplifier (Axon Instruments, Foster City, Calif.). The recorded whole-cell currents were filtered at 2 kHz and sampled at 200 μs per point. The average data are expressed as mean±SEM. Statistical significance of the data was evaluated using Student's t-test or one-way ANOVA. A level of P<0.05 was considered statistically significant.

GABAB receptors = GABAB receptors (Homo sapiens, UniProt Q9UBS5); conditions: cited from earlier work
GABAB receptors, sequence (Q9UBS5 15-961 limits assumed): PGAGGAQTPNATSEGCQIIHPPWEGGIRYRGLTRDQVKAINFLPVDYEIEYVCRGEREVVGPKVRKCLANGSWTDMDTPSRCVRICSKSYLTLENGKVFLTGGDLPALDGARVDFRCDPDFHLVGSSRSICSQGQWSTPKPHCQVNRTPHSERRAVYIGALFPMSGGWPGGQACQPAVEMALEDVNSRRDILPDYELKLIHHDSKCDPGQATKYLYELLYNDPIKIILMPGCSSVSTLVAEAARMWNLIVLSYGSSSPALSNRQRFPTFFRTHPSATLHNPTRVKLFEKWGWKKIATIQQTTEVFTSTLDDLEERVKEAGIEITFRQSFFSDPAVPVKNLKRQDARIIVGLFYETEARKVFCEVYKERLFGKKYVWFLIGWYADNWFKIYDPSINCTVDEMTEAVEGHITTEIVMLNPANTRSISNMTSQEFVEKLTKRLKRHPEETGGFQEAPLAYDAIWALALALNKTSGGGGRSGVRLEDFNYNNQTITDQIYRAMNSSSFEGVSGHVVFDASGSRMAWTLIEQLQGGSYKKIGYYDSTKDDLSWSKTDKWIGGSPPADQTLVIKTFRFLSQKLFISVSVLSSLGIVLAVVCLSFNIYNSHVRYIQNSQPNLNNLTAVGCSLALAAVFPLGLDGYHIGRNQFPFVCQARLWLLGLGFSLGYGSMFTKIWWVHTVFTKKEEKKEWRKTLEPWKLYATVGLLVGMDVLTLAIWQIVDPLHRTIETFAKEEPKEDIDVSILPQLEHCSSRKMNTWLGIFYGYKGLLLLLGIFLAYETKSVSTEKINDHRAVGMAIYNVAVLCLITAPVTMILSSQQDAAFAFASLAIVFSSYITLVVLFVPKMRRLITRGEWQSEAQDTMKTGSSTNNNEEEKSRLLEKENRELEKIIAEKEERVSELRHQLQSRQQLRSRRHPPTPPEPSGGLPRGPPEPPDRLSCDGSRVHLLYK
GABAB receptors, sequence (O75899 42-941 partner): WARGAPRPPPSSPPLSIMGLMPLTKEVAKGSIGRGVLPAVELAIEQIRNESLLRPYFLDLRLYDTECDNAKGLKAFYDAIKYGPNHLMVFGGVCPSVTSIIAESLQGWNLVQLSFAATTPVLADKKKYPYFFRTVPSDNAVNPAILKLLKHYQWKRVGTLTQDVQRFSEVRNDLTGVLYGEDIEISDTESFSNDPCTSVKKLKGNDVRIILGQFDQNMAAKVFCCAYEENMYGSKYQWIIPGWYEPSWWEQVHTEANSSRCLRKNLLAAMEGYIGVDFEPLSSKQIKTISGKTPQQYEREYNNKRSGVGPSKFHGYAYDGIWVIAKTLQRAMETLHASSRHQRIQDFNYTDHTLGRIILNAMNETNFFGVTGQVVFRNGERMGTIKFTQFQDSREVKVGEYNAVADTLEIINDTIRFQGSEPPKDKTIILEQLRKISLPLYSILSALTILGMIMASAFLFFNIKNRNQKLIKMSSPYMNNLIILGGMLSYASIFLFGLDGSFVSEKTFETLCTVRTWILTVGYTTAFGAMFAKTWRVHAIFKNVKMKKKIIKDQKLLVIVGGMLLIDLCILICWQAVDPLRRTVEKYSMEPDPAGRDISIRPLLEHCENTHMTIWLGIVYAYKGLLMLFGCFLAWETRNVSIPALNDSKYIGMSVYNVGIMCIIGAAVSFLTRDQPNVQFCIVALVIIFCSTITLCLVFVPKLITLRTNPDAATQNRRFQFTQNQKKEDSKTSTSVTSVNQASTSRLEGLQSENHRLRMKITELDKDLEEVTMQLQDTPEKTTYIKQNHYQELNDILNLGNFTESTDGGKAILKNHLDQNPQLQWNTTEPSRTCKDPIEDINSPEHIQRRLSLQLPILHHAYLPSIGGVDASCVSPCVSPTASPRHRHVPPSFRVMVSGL

[1] = tested on: formalin-induced nociceptive responses; conditions: formalin test, cited from earlier work
[2] = tested on: N and P/Q subtypes of Ca^2+ channel; conditions: cited from earlier work
[3] = rabbits; cited from earlier work
[4] = rodents; cited from earlier work
GABAA receptors = conditions: cited from earlier work
[5] = tested on: system L-amino acid transporter; conditions: cited from earlier work

In the case of `NC(CCCP(=O)(O)O)C(=O)O` (stereo not shown) [APV, 2-amino-5-phosphonovaleric acid], the “block of NMDA-evoked inward current” value (NMDA receptors; 20 μM APV, control dorsal horn neuron) is reported as “blocked”.

In the case of `NCC1(CC(=O)O)CCCCC1` [GBP, 1-(aminomethyl)cyclohexaneacetic acid], the “interaction with GABAB receptors” value (GABAB receptors) is listed as “does not interact”, the “nociceptive behaviors in the transient phase” value ([1]; first phase) is listed as “no effect” and the “sustained phase of formalin-induced nociceptive responses” value ([1]; second phase) is listed as “potently blocking”. The “inhibition of Ca^2+ channel activity” value [2] was less than 20%, the fetal loss [3] was “postimplantation fetal loss” and the fetotoxicity [4] was “fetotoxic”. For the same compound, the “interaction with GABAA receptors” value (GABAA receptors) was “does not interact” and the “interaction with system L-amino acid transporter” value [5] was “interact”.

For `COc1ccc2c(c[n+](C)c3c4cc5c(cc4ccc23)OCO5)c1OC` [chelerythrine], the “block of the action of PKCM on NMDA-activated currents” value (NMDA receptors; 6.6 μM chelerythrine in external solution) was “completely blocked”.
